Patent US9834542B2, “LXR modulators” (BRISTOL-MYERS SQUIBB COMPANY, priority 2013, dated 2017)

Biological target: T1, LXRβ (Homo sapiens, UniProt P55055)
T1 construct: Co-transfection expression plasmids, comprising full-length LXRα (pCMX-h LXRα[…] or LXRβ (pCMX-hLXRβ)); expressed in transfected cells; host or cells: CV-1 African Green Monkey Kidney Cells
T1 sequence (P55055 1-460): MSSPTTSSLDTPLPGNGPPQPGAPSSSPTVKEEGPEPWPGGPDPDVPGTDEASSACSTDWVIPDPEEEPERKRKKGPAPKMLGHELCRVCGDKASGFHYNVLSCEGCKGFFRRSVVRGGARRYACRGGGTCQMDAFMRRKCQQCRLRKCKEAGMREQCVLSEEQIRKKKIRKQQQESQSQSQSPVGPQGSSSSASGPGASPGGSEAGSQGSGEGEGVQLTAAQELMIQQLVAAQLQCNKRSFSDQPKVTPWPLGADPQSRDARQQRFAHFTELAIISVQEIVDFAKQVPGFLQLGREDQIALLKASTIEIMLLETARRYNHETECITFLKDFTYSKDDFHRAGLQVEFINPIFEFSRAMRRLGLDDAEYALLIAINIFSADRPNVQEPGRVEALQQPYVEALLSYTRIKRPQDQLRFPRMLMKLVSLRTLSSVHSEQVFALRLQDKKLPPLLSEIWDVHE
T1 sequence (P19793 1-462 partner): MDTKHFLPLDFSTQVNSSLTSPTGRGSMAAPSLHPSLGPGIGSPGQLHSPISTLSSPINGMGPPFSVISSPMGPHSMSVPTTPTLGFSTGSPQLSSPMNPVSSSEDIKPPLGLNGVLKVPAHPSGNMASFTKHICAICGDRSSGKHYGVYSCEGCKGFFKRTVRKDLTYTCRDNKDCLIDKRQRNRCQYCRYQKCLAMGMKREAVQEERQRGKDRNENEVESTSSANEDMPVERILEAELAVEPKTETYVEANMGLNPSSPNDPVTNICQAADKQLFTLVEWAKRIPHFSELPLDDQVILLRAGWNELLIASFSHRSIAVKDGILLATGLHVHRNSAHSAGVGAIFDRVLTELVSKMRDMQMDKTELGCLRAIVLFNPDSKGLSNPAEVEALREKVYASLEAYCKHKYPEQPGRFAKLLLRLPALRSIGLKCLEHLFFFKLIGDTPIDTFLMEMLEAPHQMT
Assay: Co-transfection assay (LXRE luciferase reporter), LXRβ
Assay type: cell-based
Conditions: for EC50: CV-1 cells transfected with pCMX-hLXRβ and LXREx1-Tk-Luciferase, 20 hours incubation; for Emax: LXRβ co-transfection, relative to high control 1-(2,4-difluorobenzyl)-2-oxo-6-(4-phenoxyphenyl)-4-(trifluoromethyl)-1,2-dihydropyridine-3-carbonitrile, read-out: % Efficacy
How it was run: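 CV-1 / pCMX-hLXRβ + LXREx1-Tk-Luc + β-gal; cpd 20 h, 37 °C, ≤0.5% DMSO; Steady-Glo luminescence. 11-pt ½-log curves, duplicate wells, sigmoidal fit → EC50; % efficacy vs high-control agonist, DMSO low control; mean of ≥2 expts.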

Structure (SMILES)	EC50 [nM]	Emax [%]
Cc1nc(C(F)(F)F)cn1-c1ccc(-c2cc(F)c(CO)c(S(C)(=O)=O)c2)cc1-c1oc(C(C)C)nc1-c1ccc(OC(F)(F)F)cc1 [Example 601, {3-fluoro-3′-[2-(1-methylethyl)-4-{4-[(trifluoromethyl)oxy]phenyl}-1,3-oxazol-5-yl]-5-(methylsulfonyl)-4′-[2-methyl-4-(trifluoromethyl)-1H-imidazol-1-yl]biphenyl-4-yl}methanol]	30	74
Cc1nc(C(F)(F)F)cn1-c1ccc(-c2cccc(S(C)(=O)=O)c2)cc1-n1nncc1C(=O)c1ccc(Cl)cc1 [Example 10, (4-chlorophenyl)(1-{3′-(methylsulfonyl)-4-[2-methyl-4-(trifluoromethyl)-1H-imidazol-1-yl]biphenyl-3-yl}-1H-1,2,3-triazol-5-yl)methanone]	541	62
Cc1nc(C(F)(F)F)cn1-c1ccc(-c2cccc(S(C)(=O)=O)c2)cc1-n1nncc1-c1ccc(Cl)cc1Cl [Example 76, 5-(2,4-dichlorophenyl)-1-{3′-(methylsulfonyl)-4-[2-methyl-4-(trifluoromethyl)-1H-imidazol-1-yl]biphenyl-3-yl}-1H-1,2,3-triazole]	500	69
Cc1nc(C(F)(F)F)cn1-c1ccc(-c2cc(F)c(CO)c(S(C)(=O)=O)c2)cc1-c1nc(C(C)C)oc1-c1ccc2c(c1)OC(F)(F)O2 [Example 481, (3′-(5-(2,2-difluorobenzo[d][1,3]dioxol-5-yl)-2-isopropyloxazol-4-yl)-3-fluoro-4′-(2-methyl-4-(trifluoromethyl)-1H-imidazol-1-yl)-5-(methylsulfonyl)biphenyl-4-yl)methanol]	54	66
Cc1nc(C(F)(F)F)cn1-c1ccc(-c2cccc(S(C)(=O)=O)c2)cc1-n1nncc1-c1ccc(C(F)F)cc1 [Example 5, 5-[4-(difluoromethyl)phenyl]-1-{3′-(methylsulfonyl)-4-[2-methyl-4-(trifluoromethyl)-1H-imidazol-1-yl]biphenyl-3-yl}-1H-1,2,3-triazole]	258	91
Cc1nc(-c2cc(-c3cc(F)c(CO)c(S(C)(=O)=O)c3)ccc2-n2cc(C(F)(F)F)nc2C)c(-c2cncc(Cl)c2)o1 [Example 421, (3′-(5-(5-chloropyridin-3-yl)-2-methyloxazol-4-yl)-3-fluoro-4′-(2-methyl-4-(trifluoromethyl)-1H-imidazol-1-yl)-5-(methylsulfonyl)biphenyl-4-yl)methanol]	218	76
CS(=O)(=O)c1cccc(-c2cc(F)c(-n3cnc(C(F)(F)F)c3)c(-n3nncc3-c3ccc(OC(F)(F)F)cc3)c2)c1 [Example 188, 1-{5-fluoro-3′-(methylsulfonyl)-4-[4-(trifluoromethyl)-1H-imidazol-1-yl]biphenyl-3-yl}-5-{4-[(trifluoromethyl)oxy]phenyl}-1H-1,2,3-triazole]	1750	89
Cc1nc(C(F)(F)F)cn1-c1ccc(-c2cccc(S(C)(=O)=O)c2)cc1-c1oc(CCO)nc1-c1ccc(Cl)cc1 [Example 618, 2-(4-(4-chlorophenyl)-5-(4-(2-methyl-4-(trifluoromethyl)-1H-imidazol-1-yl)-3′-(methylsulfonyl)-[1,1′-biphenyl]-3-yl)oxazol-2-yl)ethanol]	783	66
Cc1nc(C(F)(F)F)cn1-c1ccc(-c2cc(F)c(CO)c(S(C)(=O)=O)c2)cc1-c1ccnn1-c1ccc(OC(F)(F)F)cc1 [Example 292, [3-fluoro-5-(methylsulfonyl)-4′-[2-methyl-4-(trifluoromethyl)-1H-imidazol-1-yl]-3′-(1-{4-[(trifluoromethyl)oxy]phenyl}-1H-pyrazol-5-yl)biphenyl-4-yl]methanol]	65	70
Cc1nc(-c2cc(-c3cccc(S(C)(=O)=O)c3)ccc2-n2cc(C(F)(F)F)nc2C)c(-c2ccc(OC(F)F)nc2)o1 [Example 384, 5-(6-(difluoromethoxy)pyridin-3-yl)-2-methyl-4-(4-(2-methyl-4-(trifluoromethyl)-1H-imidazol-1-yl)-3′-(methylsulfonyl)biphenyl-3-yl)oxazole]	12	72
Cc1cc(-c2cc(-c3ccc(CO)c(S(C)(=O)=O)c3)ccc2-n2cc(C(F)(F)F)nc2C)n(-c2ccc(OC(F)F)cc2)n1 [Example 302, (3′-(1-(4-(difluoromethoxy)phenyl)-3-methyl-1H-pyrazol-5-yl)-4′-(2-methyl-4-(trifluoromethyl)-1H-imidazol-1-yl)-3-(methylsulfonyl)-[1,1′-biphenyl]-4-yl)methanol]	25	81
Cc1nc(C(F)(F)F)cn1-c1ccc(-c2cc(F)cc(S(C)(=O)=O)c2)cc1-c1nc(C(F)(F)F)cn1-c1ccc2c(c1)OC(F)(F)O2 [Example 641, 1-(2,2-difluorobenzo[d][1,3]dioxol-5-yl)-2-(3′-fluoro-4-(2-methyl-4-(trifluoromethyl)-1H-imidazol-1-yl)-5′-(methylsulfonyl)biphenyl-3-yl)-4-(trifluoromethyl)-1H-imidazole]	721	59
CCC(F)(F)c1cn(-c2ccc(-c3cccc(S(C)(=O)=O)c3)cc2-c2nc(C)oc2-c2ccc(OC(F)(F)F)cc2)c(C)n1 [Example 517, 4-(4-(4-(1,1-difluoropropyl)-2-methyl-1H-imidazol-1-yl)-3′-(methylsulfonyl)-[1,1′-biphenyl]-3-yl)-2-methyl-5-(4-(trifluoromethoxy)phenyl)oxazole]	146	47
Cc1nc(-c2cc(-c3cccc(S(C)(=O)=O)c3)ccc2-n2cc(C(F)(F)F)nc2C)c(-c2ccc3ccccc3c2)o1 [Example 436, 2-methyl-4-(4-(2-methyl-4-(trifluoromethyl)-1H-imidazol-1-yl)-3′-(methylsulfonyl)biphenyl-3-yl)-5-(naphthalen-2-yl)oxazole]	76	77
Cc1nc(C(F)(F)F)cn1-c1ccc(-c2cc(F)c(CO)c(S(C)(=O)=O)c2)cc1-c1nc(CC(C)C)oc1-c1ccc(OC(F)(F)F)cc1 [Example 561, (3-fluoro-3′-(2-isobutyl-5-(4-(trifluoromethoxy)phenyl)oxazol-4-yl)-4′-(2-methyl-4-(trifluoromethyl)-1H-imidazol-1-yl)-5-(methylsulfonyl)-[1,1′-biphenyl]-4-yl)methanol]	13	71
Cc1cc(-c2cc(-c3cc(F)c(CO)c(S(C)(=O)=O)c3)ccc2-n2cc(C(F)(F)F)nc2C)n(-c2ccc3c(c2)OC(F)(F)O3)n1 [Example 299, (3′-(1-(2,2-difluorobenzo[d][1,3]dioxol-5-yl)-3-methyl-1H-pyrazol-5-yl)-3-fluoro-4′-(2-methyl-4-(trifluoromethyl)-1H-imidazol-1-yl)-5-(methylsulfonyl)biphenyl-4-yl)methanol]	17	77
Cc1nc(-c2cc(-c3cc(F)c(CCO)c(S(C)(=O)=O)c3)ccc2-n2cc(C(F)(F)F)nc2C)c(-c2ccc(OC(F)(F)F)cc2)o1 [Example 529, 2-(3-fluoro-4′-(2-methyl-4-(trifluoromethyl)-1H-imidazol-1-yl)-3′-(2-methyl-5-(4-(trifluoromethoxy)phenyl)oxazol-4-yl)-5-(methylsulfonyl)-[1,1′-biphenyl]-4-yl)ethanol]	54	101
Cc1nc(-c2cc(-c3cccc(S(C)(=O)=O)c3)ccc2-n2cc(C(F)(F)F)nc2C)c(-c2ccc(Cl)cc2F)o1 [Example 484, 5-(4-chloro-2-fluorophenyl)-2-methyl-4-(4-(2-methyl-4-(trifluoromethyl)-1H-imidazol-1-yl)-3′-(methylsulfonyl)biphenyl-3-yl)oxazole]	48	57
Cc1nc(C2CC2)cn1-c1ccc(-c2cccc(S(C)(=O)=O)c2)cc1-n1nncc1-c1ccc(Cl)cc1 [Example 228, 5-(4-chlorophenyl)-1-(4-(4-cyclopropyl-2-methyl-1H-imidazol-1-yl)-3′-(methylsulfonyl)-[1,1′-biphenyl]-3-yl)-1H-1,2,3-triazole]	2560	67
